Where two headings read alike, the source gives them in different places.

One molecule from patent publication US5977104A, “Use of NK-1 receptor antagonists for treating bipolar disorders” (Merck Sharp & Dohme Ltd., priority 1996, dated 1999) can be followed below.

Assay [1] concerns foot tapping in gerbils induced by NK-1 receptor agonist GR73632. The assay is described as follows: Gerbil foot-tapping (Assay 2), induced by central infusion of NK-1 receptor agonist GR73632. The class given is in vivo, Mongolian gerbil. The following applies: Meriones unguiculatus, iv. From the text:
CNS-penetrant NK-1 receptor antagonists for use in the present invention can be identified by their ability to inhibit foot tapping in gerbils induced by anxiogenic agents (such as pentagastrin) or central infusion of NK-1 receptor agonists such as GR73632, or caused by aversive stimulation such as foot shock or single housing, based on the method of Rupniak & Williams, Eur. J. Pharmacol., 1994, 265, 179.
Male or female Mongolian gerbils (35-70 g) are anaesthetised by inhalation of an isoflurane/oxygen mixture to permit exposure of the jugular vein in order to permit administration of test compounds or vehicle in an injection volume of 5ml/kg i.v. Alternatively, test compounds may be administered orally or by subcutaneous or intraperitoneal routes. A skin incision is then made in the midline of the scalp to expose the skull. […]

Assay [2] relates to cisplatin-induced emesis in ferrets. The experiment in a line: Ferret emesis (Assay 3), cisplatin-induced. The assay is classed as in vivo. The following applies: Mustela putorius, po, 4 h; p.o., cisplatin 10 mg/kg i.v. at 60 minutes following dosing; read-out: ferret emesis: ID90. The method, then: Ten minutes later they are fed with approximately 100 g of tinned cat food. At 60 minutes following oral dosing, cisplatin (10 mg/kg) is given i.v. via a jugular vein catheter inserted under a brief period of halothane anaesthesia. The catheter is then removed, the jugular vein ligated and the skin incision closed. The ferrets recover rapidly from the anaesthetic and are mobile within 10-20 minutes. The animals are observed continuously during recovery from the anaesthetic and for 4 hours following the cisplatin injection, after which time the animals are killed humanely. The numbers of retches and vomits occurring during the 4 hours after cisplatin administration are recorded by trained observers.

In assay [3] the test system is separation-induced vocalisations by guinea-pig pups. The assay is described as follows: Separation-induced vocalisation in guinea-pig pups (Assay 4). The class given is in vivo. Conditions: Cavia porcellus, po, 4 hr. pretreatment; read-out: guinea-pig vocalisation (4 hr. pretreatment): ID50. On the procedure: Male and female guinea-pigs pups are housed in family groups with their mothers and littermates throughout the study. Experiments are commenced after weaning when the pups are 2 weeks old. Before entering an experiment, the pups are screened to ensure that a vigorous vocalisation response is reproducibly elicited following maternal separation. The pups are placed individually in an observation cage (55 cm×39 cm×19 cm) in a room physically isolated from the home cage for 15 minutes and the duration of vocalisation during this baseline period is recorded. […] On test days each pup receives an oral dose or an s.c. or i.p. injection of test compound or vehicle and is then immediately returned to the home cage with its mother and siblings for 30 to 60 minutes (or for up to 4 hours following an oral dose, dependent upon the oral pharmacokinetics of the test compound) before social isolation for 15 minutes as described above. […] Between 6 and 8 animals receive each test compound at each dose tested.

For `OC[C@@H](O[C@H]1OCCN(Cc2nc[nH]n2)[C@H]1c1ccc(F)cc1)c1cc(C(F)(F)F)cc(C(F)(F)F)c1` [2-(R)-(1-(S)-(3,5-bis(trifluoromethyl)phenyl)-2-hydroxyethoxy)-3-(S) -(4-fluorophenyl)-4-(1,2,4-triazol-3-yl)methylmorpholine], the ED50 in assay [1] (5 min, i.v., immediately prior to GR73632 challenge (5 mins.), read-out: gerbil foot-tapping (5 mins.): ID50) was determined as 0.38 mg/kg; in assay [1] (24 hours prior to central NK1 agonist challenge, read-out: gerbil foot-tapping (24 hrs.): ID50), 2.2 mg/kg; in assay [3], 0.91 mg/kg. In addition, in assay [2], the ED90 is 1 mg/kg.
